Results reported in patent US6310093A (priority 1998, dated 2001).

Experiments:
[1] = tested on: pure neuronal cultures (cortical neurons) exposed to glutamine; test: cells; details: Mus musculus, Cortical neurone, 24 h, read-out: neuronal LDH release
[2] = tested on: pure neuronal cultures (cortical neurons) exposed to glutamine
neuronal cultures = test: Glutamate production by intact and damaged neuronal cultures with added glutamine; type: cell-based, mouse (Swiss Webster); details: for Glutamate concentration (in words) / Glutamate production (S): 2 mM Gln
Method: When 2 mM glutamine is added to intact neuronal cultures, the rate at which glutamate accumulates in the culture medium increases with time (FIG. 2). Since the clearance of medium glutamate by neuronal cultures is extremely slow, one estimate of the rate of glutamate production by neurons exposed to glutamine can be obtained from the initial rate of glutamate accumulation. Using the difference in glutamate concentrations at 1 and 15 min after glutamine addition, a value of 0.032±0.006 μM/min (12.8 pmol/min) was obtained. Since glutamine exposure itself eventually causes neuronal death and high rates of glutamine hydrolysis, this estimate of glutamate production should be viewed as an upper limit. However, this value is similar to that obtained by comparing glutamate production by glial and mixed neuronal-glial cultures exposed to glutamine (see below).
In the absence of added glutamine (i.e., in the 0.15 mM glutamine manufactured by the neuronal cultures), glutamate production into the medium of cultures lysed by freezing and thawing occurred at a rate of 0.035±0.006 μM/min (14 pmol/min). […] Thus, damaged neurons incubated in 2 mM glutamine produce within 6-8 min an amount equal to that released by freeze-thawing.
(§1) Pre-column derivatization with o-phthalaldehyde (OPA, Sigma) and separation by reversed phase HPLC was used. A Gilson HPLC was fitted with a Hewlett-Packard model 1046A fluorimetric detector (excitation 340 nm, emission 420 nm). Medium was collected from cell culture at various times, and frozen at -80° C., prior to dilution of 5 or 10 μl into auto-sampler vials containing 40 or 45 μl dimethylformamide:water 1:3 (derivatives with 2-mercaptoethanol) or 1:9 (derivatives with N-acetyl-L-cysteine). For analysis of the derivatives formed with 2-mercaptoethanol, samples were reacted according to published methods (Newcomb, R. (1989) LC GC 7, 570-578; Lindroth, P., and Mopper. K., (1979) Anal. Chem. 51, 1667-1674.), and a gradient of 0-40% methanol in 1.25 mM sodium phosphate pH 6.2 over 20 min was used to elute the derivatives from a 4.5×250 mm Beckman Ultrasphere octadecylsilica column (dp 5 μm) at 1 ml/min. For analysis of the derivatives formed with N-acetyl-L-cysteine (Bruckner), samples were reacted with 25 μl of 1 mg/ml OPA, and 50 μl of 1 mg/ml N-acetyl-L-cysteine (Fluka) in 0.5 M potassium borate pH 10.0. Chromatography was carried out on a 4.5×250 mm Phenomonex Primesphere "HC" octadecylsilica column (dp 5 μm) using a gradient of 0-35% methanol in 15 mM sodium phosphate pH 6.2 (0.13% tetrahydrofuran) over 65 minutes at 1 ml/min. It was shown for each of the experimental conditions (ie. glial and control and damaged neuronal and mixed cultures) that both analytical systems gave results for glutamate and glutamine measurements which were, within error, identical.
Glutamate concentrations were converted to units of pmol/μl of culture medium, or μM. In the absence of cellular uptake (ie, in damaged neuronal cultures), the rate of glutamate production was obtained directly from the measurements of the amounts of glutamate in culture medium at various times.

[3] = tested on: mixed glial-neuronal cultures; test: Glutamate production in intact mixed glial-neuronal cultures with added glutamine; type: cell-based, mouse (Swiss Webster)
Method: Added glutamate (15 μM) was rapidly cleared from the medium of the mixed glial-neuronal cultures (FIG. 1). The uptake again fit to a first order process and occurred with a rate constant of 0.072 min^-1. […] When the intact mixed cultures were maintained in the absence or presence of added 2 mM glutamine, they also maintained steady state concentrations of glutamate below 1 μM (0.37±0.06 μM and 0.83±0.47 μM respectively). Thus, from the steady state equation, the rates of glutamate production were estimated to be 0.027 μM/min (11 pmol/min) in the absence of added glutamine and 0.060 μM/min (24 pmol/min) in the presence of 2 mM glutamine.
Measurements of glutamate and glutamine concentrations, as well as of the release of the cytoplasmic marker enzyme, lactate dehydrogenase (LDH), were made with the medium of mixed neuronal-astrocyte cultures exposed to hypoxic and control conditions, with and without the addition of 2 mM glutamine. For comparative purposes, the measurements were made in mixed cultures in which complete neuronal death was caused by a 5h exposure to 500 μM NMDA. The first glutamate measurement was made at the end of hypoxia (5h with mixed cultures, 7h with astrocytes), and the second at 19 h after the subsequent return of oxygen. If added, glutamine was present during and after hypoxia. LDH released by the experimental treatment was measured at 24 h, and is expressed as a percentage of the total cellular content (neurons in mixed cultures, and glia in glial cultures). To verify the neuronal origin of LDH and glutamate, similar experiments were performed on cultures that only contained glia.
as §1, with “Chromatography was carried out on a 4.5×250 mm Phenomonex Primesphere "HC" octadecylsilica column (dp 5 μm) using a gradient of 0-35% methanol in 15 mM sodium phosphate pH 6.2 (0.13% tetrahydrofuran) over 65 minutes at 1 ml/min. It was shown for each of the experimental conditions (ie. glial and control and damaged neuronal and mixed cultures) that both analytical systems gave results for glutamate and glutamine measurements which were, within error, identical.” left out
In cultures where glutamate concentrations are (within error) constant, d[Glu]/dt is close to zero, and cellular production of medium glutamate is balanced by its removal, such that glutamate production can be calculated from the steady state equation: […]
Calculations were performed using the slopes of the regression lines which describe the rate constants for glutamate removal and the mean values for culture medium glutamate concentrations. […] For comparative purposes, glutamate production rates can be expressed as pmol of glutamate produced per min in each culture. […]

[4] = Table 2, glial-neuronal, 2 mM Gln

SMILES: NC(=O)CC[C@H](N)C(=O)O [Gln, glutamine]
- cytotoxicity at 2000 µM [1]: 62 ± 22%
- medium glutamate [2]: 197 ± 23 μM Glu
- glutamate production by damaged neurons vs intact neurons or glia (neuronal cultures; 2 mM glutamine): 10-30 fold
- Glutamate concentration (in words) (neuronal cultures; NMDA-treated neurons): increases linearly
- Glutamate production (S) (neuronal cultures; NMDA-treated neurons): 0.54 ± 0.09 µM/min
- glutamate production per culture (neuronal cultures; NMDA-treated neurons, 2 mM glutamine): 216 pmol/min
- Glutamate concentration (in words) (neuronal cultures; freeze-thaw damaged neurons): increases linearly
- Glutamate production (S) (neuronal cultures; freeze-thaw damaged neurons): 0.79 ± 0.08 µM/min
- glutamate production per culture (neuronal cultures; freeze-thawed neurons, 2 mM glutamine): 316 pmol/min
- Glutamate concentration (in words) (neuronal cultures; intact neurons): increases
- Glutamate production (S) (neuronal cultures; intact neurons): 0.032 ± 0.006 µM/min
- glutamate production per culture (neuronal cultures; intact neurons, 2 mM glutamine): 12.8 pmol/min
- Glu ([3]; 2 mM Gln, 5 h, mixed cultures, no hypoxia): 0.83 ± 0.47 µM
- cytotoxicity at 2000 µM ([3]; Mus musculus, 24 h, read-out: % cell death (LDH)): 17.6%
- Glutamate concentration [3, 4]: 0.83 ± 0.47
- Glutamate production (S) [3, 4]: 0.06
- glutamate production per culture ([3]; mixed, 2 mM glutamine): 24 pmol/min
